Data as given in patent publication US9126966B2, “Cationic lipids and methods of use thereof” (Protiva Biotherapeutics, Inc., priority 2011, dated 2015).

Test system: Liver ApoB mRNA
Experiment: Liver ApoB mRNA knockdown after IV injection of LNP formulations, branched DNA assay (QuantiGene) relative to GAPDH
Assay type: in vivo, female Balb/c mice
Settings: 1:57 LNP with ApoB siRNA; for ApoB knockdown relative to PBS control: IV 0.033 mg/kg total siRNA, standard deviation in brackets; for ApoB knockdown relative to PBS control / ApoB knockdown relative PBS control: liver mRNA at 48 hours; for ApoB-silencing activity of LNP formulations (in words): IV 0.033 mg/kg, summary of Table 3
Method: LNP formulations were administered by IV injection at 0.033 mg/kg total siRNA dose into female Balb/c mice (n=3 per group). Liver ApoB mRNA levels were evaluated at 48 hours after LNP administration by a branched DNA assay (QuantiGene assay) to assess ApoB mRNA relative to the housekeeping gene GAPDH.
LNP formulations were administered by intravenous injection at doses of 0.0075, 0.015 and 0.03 mg/kg total siRNA dose into female Balb/c mice (n=3 per group). Liver ApoB mRNA levels were evaluated 48 hours after LNP administration by a branched DNA assay (QuantiGene assay) and standardized relative to the housekeeping gene GAPDH.

In the case of `CCCCC/C=C\C/C=C\CCCCCCCCC1CC(CCCCCCC/C=C\C/C=C\CCCCC)OC(CCN(C)C)O1` (centres unmarked) [Compound 8, 2-(4-((8Z,11Z)-heptadeca-8,11-dien-1-yl)-6-((9Z,12Z)-octadeca-9,12-dien-1-yl)-1,3-dioxan-2-yl)-N,N-dimethylethanamine], the “ApoB knockdown relative to PBS control” value was −71 (±2.7) % and the “ApoB-silencing activity of LNP formulations (in words)” value was “particularly potent ApoB-silencing activity”.

`CCCCC/C=C\C/C=C\CCCCCCCCC1CC(CCCCCCC/C=C\C/C=C\CCCCC)OC(CCCN(C)C)O1` (centres unmarked) [Compound 9, 3-(4-((8Z,11Z)-heptadeca-8,11-dien-1-yl)-6-((9Z,12Z)-octadeca-9,12-dien-1-yl)-1,3-dioxan-2-yl)-N,N-dimethylpropan-1-amine] was tested, and the “ApoB knockdown relative PBS control” value (IV 0.0075 mg/kg total siRNA) was −39%, the “ApoB knockdown relative PBS control” value (IV 0.015 mg/kg total siRNA) was −51% and the “ApoB knockdown relative PBS control” value (IV 0.03 mg/kg total siRNA) was −73%. For the same compound, the “ApoB knockdown relative to PBS control” value was −80 (±3.3) %, the “ApoB-silencing activity of LNP formulations (in words)” value was “particularly potent ApoB-silencing activity” and the “Potency of LNP formulations compared with reference lipid (in words)” value (IV 0.0075, 0.015 and 0.03 mg/kg, summary of Table 5) was “more potent than LNP formulations containing C2K”.

For `CCCCC/C=C\C/C=C\CCCCCCCCC1(CCCCCCCC/C=C\C/C=C\CCCCC)OCC(CCN(C)C)O1` (centres unmarked) [Compound C2K, 2,2-dilinoleyl-4-(2-dimethylaminoethyl)[1,3]-dioxolane, reference compound], the “ApoB knockdown relative PBS control” value (IV 0.0075 mg/kg total siRNA) was −25%, the “ApoB knockdown relative PBS control” value (IV 0.015 mg/kg total siRNA) was −41% and the “ApoB knockdown relative PBS control” value (IV 0.03 mg/kg total siRNA) was −54%.
